Reference: US5654273A, “Synducin mediated modulation of tissue repair” (Children's Medical Center Corporation, priority 1994, dated 1997)
Where no end group is shown, it is not given here.

Assays:
Type in all cases: cell-based
[1] = tested on: NIH-3T3 cells; assay: Uptake and binding of iodinated PR-39
Experimental: FIG. 4 is a graph showing uptake of PR-39 by NIH-3T3 cells.
PR-39 was iodinated using the Iodogen procedure (Pierce T). The influx and efflux kinetics were calculated, accessable compartments were evaluated, and total uptake measured in NIH-3T3 cells.

[2] = tested on: NIH-3T3 cells; assay: Effect on cell morphology (f-actin, rhodamine phalloidin); conditions: 2 μM, 72 hr, confluent NIH-3T3
Experimental: To determine the effect on cell morphology, NIH-3T3 cells were cultured to confluence on coverslips in 24 well plates. 2 μM PR-39 was added the medium and cultured for 72 hr. 2% PFA and acetone were used to fix cells and cells were stained with f-actin with rhodamine phalloidin.

[3] = tested on: NIH-3T3 cells; assay: Cell permeability after PR-39 treatment (propium iodide); conditions: for fluorescent cells per 20× field: confluent NIH-3T3, 60 minutes at 37° C., 50 μg/ml propium iodide
Experimental: Cell permeability after PR-39 treatment was then measured. NIH-3T3 cells were cultured to confluence on chamber slides. 0, 0.1, 0.5, 1, and 10 μM PR-39 was added to the culture medium and incubated 60 minutes at 37° C.; then 50 μg/ml propium iodide (FW 688) was added.

[4] = tested on: cell surface syndecan-1; assay: ELISA for cell surface syndecan-1 on NIH 3T3 cells; conditions: for increase of cell surface syndecan-1: confluent NIH 3T3 cells, after 48 hr culture
Experimental: An in vitro cell culture system was used to explore the mechanism by which cell surface syndecans is induced. NIH 3T3 cells grown to confluence in serum-containing medium were exposed to potential inducers and then evaluated by ELISA for the amount of cell surface syndecan-1.
Syndecan-1 at the cell surface was determined on cells cultured in 96 well tissue culture plates by washing the cells once in Tris buffered saline (TBS) (10 mM Tris, 150 mM NaCl, pH 7.4), fixing 30 min in 2% HEPES-buffered paraformaldehyde, pH 7.4, rinsing three times in TBS and incubating the cells for 30 min in TBS, 0.1% BSA, 5% goat serum. Cells were incubated for 1 hr at room temperature with 5 μg/ml mAb 281-2 (specific for extracellular domain of syndecan-1 core protein) (M. Jalkanen, H. Nguyen, A. C. Rapraeger, N. Kurn, M. Bernfield, J. Cell Biol., 101:976 (1985)) or non-specific rat IgG2A (Zymed, San Francisco, Calif.). Cells were then rinsed 3×5 min with TBS, incubated with alkaline phosphatase conjugated goat anti-rat antibody (Caltag, San Francisco, Calif.) for 30 min, rinsed 3×5 min with TBS, and alkaline phosphatase activity determined by measuring the absorbance at 405 nm of a 1 mg/ml solution of p-nitrophenolphosphate (Sigma, St. Louis, Mo.) in 10 mM Tris, 100 mM NaCl, 5 mM MgCl pH 9.5. Linear rates of absorbance change over time were determined by an automated microplate reader (Molecular Devices, Menlo Park, Calif.). Cells were then rinsed 3× with TBS and cellular protein determined by solubilizing cells in individual wells with 20 μl of 0.1N NaOH followed by protein determination (BCA protein assay, Pierce, Rockford, Ill.).
These measurements correlated strongly over the range of syndecan-1 detected in this study (r=0.96), confirming that the ELISA assay provides a quantitative assessment of cell surface syndecan-1. […]

[5] = tested on: NIH 3T3 cells; assay: Cell number, cell protein and morphology of treated NIH 3T3 cells

Row | Substance | fluorescent cells per 20× field [3] | increase of cell number [5] | increase of cell surface syndecan-1 [4] | other results
1 | RRRPRPPYLPRPRPPPFFPPRLPPRIPPGFPPRFPPRFP [PR-39] | 2 /20× field |  |  | uptake into cells ([1]; iodinated PR-39, NIH-3T3 cells): rapidly associates with and enters NIH-3T3 cells; saturation of uptake ([1]; radioactive PR-39, NIH-3T3 cells): reaches a saturation point; change in cell morphology [2]: No change in cell morphology; membrane permeability change ([3]; 0.1, 0.5, 1 and 10 μM, 60 minutes at 37° C.): no large perability changes; induction of cell surface syndecan-1 by PR-39 ([4]; NIH-3T3 cells, 43 hours): concentration dependent manner
2 | PDGF-AB |  | about two-fold | approximately three to four-fold | 
3 | FGF-2 |  | about two-fold | approximately three to four-fold | 
4 | Triton™ | approximately 50 /20× field |  |  | fluorescent cells, percent ([3]; confluent NIH-3T3, 50 μg/ml propium iodide): 100%
